Three molecules from ChEMBL document CHEMBL3871262, “β-Ionone and its analogs as promising anticancer agents” (Eur J Med Chem, 2016) can be followed below.

Test [1] is described as follows: Cytotoxicity against human LNCAP cells harboring AR T877A mutant assessed as decrease in cell viability after 72 hrs by MTT assay. It is filed as functional, cell-based. A general note: Formazan colour is commonly taken as a measure of viable cells.
Test [2] can be described thus: Cytotoxicity against human PC3 cells assessed as decrease in cell viability after 72 hrs by MTT assay. It is filed as functional, cell-based. Particulars: PC-3, 72 h.
Test [3] can be described thus: Cytotoxicity against human 22Rv1 cells harboring AR H874Y mutant assessed as decrease in cell viability after 72 hrs by MTT assay. It is filed as functional, cell-based, CWR22R. Particulars: 22Rv1, 72 h.
Test [4] in a line: Cytotoxicity against human C4-2B cells harboring AR T877A mutant assessed as decrease in cell viability after 72 hrs by MTT assay. It is filed as functional, cell-based. Particulars: LNCaP C4-2B.
The nature of test [5]: Cytotoxicity against human DU145 cells assessed as decrease in cell viability after 72 hrs by MTT assay. It is filed as functional, cell-based. The note with it: DU-145, 72 h.
Test [6] can be described thus: Growth inhibition of human SGC7901 cells at 50 uM after 24 to 48 hrs by MTT assay relative to control. It is filed as functional. Particulars: SGC-7901, read-out: GI.
For test [7], the system named is MCF7. The experiment in a line: Induction of apoptosis in human MCF7 cells assessed as inhibition of DNA synthesis at 48 hrs relative to control. It is filed as functional.
Test [8] can be described thus: Antiproliferative activity against human MCF7 cells. It is filed as functional, cell-based.
The nature of test [9]: Growth inhibition of human MDA-MB-435 cells at 200 uM after 7 days relative to control. Particulars: MDA-MB-435, 168 h, read-out: GI. It is filed as functional.
Test [10] relates to MCF7. The experiment in a line: Inhibition of cell mitosis in human MCF7 cells after 48 hrs relative to control. It is filed as functional.
Test [11] relates to MDA-MB-435. Briefly: Inhibition of clone formation in human MDA-MB-435 cells after 48 hrs relative to control. It is filed as functional.
Test [12] concerns MDA-MB-435. The experiment in a line: Inhibition of cell mitosis in human MDA-MB-435 cells after 48 hrs relative to control. It is filed as functional.
Test [13] can be described thus: Antiproliferative activity against human SGC7901 cells. It is filed as functional, cell-based. Particulars: SGC-7901.
Test [14] in a line: Growth inhibition of human SGC7901 cells after 24 to 48 hrs by MTT assay. It is filed as functional, cell-based. Particulars: SGC-7901.
The nature of test [15]: Growth inhibition of human MDA-MB-435 cells after 7 days relative to control. It is filed as functional, cell-based. The note with it: MDA-MB-435, 168 h.
Test [16] in a line: Growth inhibition of human MDA-MB-435 cells at 25 uM after 7 days relative to control. It is filed as functional. The note with it: MDA-MB-435, 168 h, read-out: GI.
The nature of test [17]: Growth inhibition of human SGC7901 cells at 25 uM after 24 to 48 hrs by MTT assay relative to control. It is filed as functional. The note with it: SGC-7901, read-out: GI.
A short description of test [18]: Growth inhibition of human SGC7901 cells at 50 uM after 8 days by MTT assay relative to control. Particulars: SGC-7901, 192 h, read-out: GI. It is filed as functional.
A short description of test [19]: Growth inhibition of human SGC7901 cells at 100 uM after 8 days by MTT assay relative to control. It is filed as functional. The note with it: SGC-7901, 192 h, read-out: GI.
Test [20] can be described thus: Growth inhibition of human SGC7901 cells at 100 uM after 24 to 48 hrs by MTT assay relative to control. It is filed as functional. The note with it: SGC-7901, read-out: GI.
Test [21] has as its system Rattus norvegicus. Briefly: Antitumor activity against DMBA-induced mammary carcinogenesis in Sprague-Dawley rat assessed as inhibition of tumor formation at 18 mmol/kg administered with AIN-76A diet treated 2 weeks prior to DMBA addition for 24 weeks by hematoxylin and eosin staining based microscopic analysis relative to DMBA treated control. It is filed as functional.

Test [22] can be described thus: Antiproliferative activity against human PC3 cells after 72 hrs by flow cytometry. It is filed as functional, cell-based. Particulars: PC-3, 72 h.
Test [23] in a line: Growth inhibition of human SGC7901 cells at 200 uM after 24 to 48 hrs by MTT assay relative to control. It is filed as functional. The note with it: SGC-7901, read-out: GI.
Test [24] in a line: Growth inhibition of human SGC7901 cells at 200 uM after 8 days by MTT assay relative to control. It is filed as functional. Particulars: SGC-7901, 192 h, read-out: GI.
The nature of test [25]: Antiproliferative activity against human LNCAP cells after 72 hrs by flow cytometry. It is filed as functional, cell-based.
Test [26] deals with MDA-MB-435. The experiment in a line: Induction of apoptosis in human MDA-MB-435 cells assessed as inhibition of DNA synthesis after 48 hrs relative to control. It is filed as functional.
Test [27] in a line: Growth inhibition of human MDA-MB-435 cells at 100 uM after 7 days relative to control. It is filed as functional. Particulars: MDA-MB-435, 168 h, read-out: GI.
In test [28] the test system is Rattus norvegicus. Briefly: Antitumor activity against DMBA-induced mammary carcinogenesis in Sprague-Dawley rat assessed as tumor incidence at 9 mmol/kg administered with AIN-76A diet treated 2 weeks prior to DMBA addition for 24 weeks by hematoxylin and eosin staining based microscopic analysis (reference value: 82.1%). It is filed as functional.
For test [29], the system named is Rattus norvegicus. Briefly: Antitumor activity against DMBA-induced mammary carcinogenesis in Sprague-Dawley rat assessed as tumor incidence at 18 mmol/kg administered with AIN-76A diet treated 2 weeks prior to DMBA addition for 24 weeks by hematoxylin and eosin staining based microscopic analysis (reference value: 82.1%). It is filed as functional.
For test [30], the system named is Rattus norvegicus. The experiment in a line: Antitumor activity against DMBA-induced mammary carcinogenesis in Sprague-Dawley rat assessed as inhibition of tumor formation at 36 mmol/kg administered with AIN-76A diet treated 2 weeks prior to DMBA addition for 24 weeks by hematoxylin and eosin staining based microscopic analysis relative to DMBA treated control. It is filed as functional.

In test [31] the test system is Rattus norvegicus. The experiment in a line: Antitumor activity against DMBA-induced mammary carcinogenesis in Sprague-Dawley rat assessed as inhibition of tumor formation at 9 mmol/kg administered with AIN-76A diet treated 2 weeks prior to DMBA addition for 24 weeks by hematoxylin and eosin staining based microscopic analysis relative to DMBA treated control. It is filed as functional.

Test [32] can be described thus: Growth inhibition of human SGC7901 cells at 25 uM after 8 days by MTT assay relative to control. It is filed as functional. The note with it: SGC-7901, 192 h, read-out: GI.
Test [33] can be described thus: Growth inhibition of human MDA-MB-435 cells at 50 uM after 7 days relative to control. It is filed as functional. The note with it: MDA-MB-435, 168 h, read-out: GI.
Test [34] has as its system Rattus norvegicus. Briefly: Antitumor activity against DMBA-induced mammary carcinogenesis in Sprague-Dawley rat assessed as tumor incidence at 36 mmol/kg administered with AIN-76A diet treated 2 weeks prior to DMBA addition for 24 weeks by hematoxylin and eosin staining based microscopic analysis (reference value: 82.1%). It is filed as functional.
A short description of test [35]: Antiproliferative activity against human DU145 cells after 72 hrs by flow cytometry. It is filed as functional, cell-based. Particulars: DU-145, 72 h. In general terms: In flow cytometry, cells or beads pass a laser one at a time.
A short description of test [36]: Cytotoxicity against human MDA PCa 2b cells harboring AR T877A/L701H double mutant assessed as decrease in cell viability after 72 hrs by MTT assay. It is filed as functional, cell-based.

Broadly, the IC50 is the concentration that inhibits the measured activity by half. For `COc1cc(/C=C(\C(=O)/C=C/C2=C(C)C(O)CCC2(C)C)C(=O)/C=C/c2ccc(O)c(OC)c2)ccc1O` (stereo not given), the IC50 in test [1], in test [2], in test [3], in test [4] and in [5] was 1.2 to 5.6 µM in each case.
The inhibition in vivo is the relative decrease from the control value, in per cent. Regarding `CC(=O)/C=C/C1=C(C)CCCC1(C)C` [BETA-IONONE], the inhibition of growth at 50 µM in [6] is 30.6%; in test [18] it was 28.2%; in test [33] it was 71.2%. For the same molecule, the “inhibition (INH)” value was 35.1 - 81.89% in the test with MCF7 [7]; 87.79% in the test on MCF7 [10]; 95.55% with MDA-MB-435 [11]; 75.12% with MDA-MB-435 [12]; 78.35% in the test on MDA-MB-435 [26]. Besides, the IC50 in [8] amounted to 104 µM; in [13] it was 175 µM; in [14] it was 89 µM; in test [15], 42 µM; in test [22] it was 130 µM; in test [25] it was 130 µM. The molecule also displayed an IC50 in test [35] of 210 µM. In addition, the inhibition of growth at 200 µM came out at 84.9% in test [9], 94.2% in test [23] and 90.1% in test [24]. Also, the values for the inhibition of growth at 25 µM in test [16], in test [17] and in [32] were 45.6%, 12% and 25.9%, respectively. In addition, the inhibition of growth at 100 µM in test [19] came to 74.4%; in test [20], 78.2%; in test [27] it was 81.5%. The inhibition in vivo at 18000 µmol/kg with Rattus norvegicus [21] was 68.3%. Moreover, the Activity in the test on Rattus norvegicus [28] is 53.3%; in the test with Rattus norvegicus [29], 25.9%; with Rattus norvegicus [34], 10%. The inhibition in vivo at 36000 µmol/kg in the test with Rattus norvegicus [30] stood at 87.8%. For the same molecule, in the test with Rattus norvegicus [31], the inhibition in vivo at 9000 µmol/kg is 35.4%.
Turning to `CC1=C(/C=C/C(=O)/C=C/c2csc3ccccc23)C(C)(C)CCC1O` (stereo not given), the IC50 in test [1], in [2], in test [3], in test [36] and in test [4] was 0.57 to 2 µM each time.
